Reference: US7425573B2, “Use of annellated pyrrole compounds in the treatment of articular cartilage or subchondral bone degeneration” (priority 2001, dated 2008)

Key:
[1] = Clinical observation of dogs during 8 weeks of treatment; format: in vivo; settings: all dogs of the 3 experimental groups
Protocol: (§1) Twenty-one adult crossbred dogs (2-3 years old), weighing 20-25 kg each, were used in this study. Surgical sectioning of the anterior cruciate ligament (ACL) of the right knee through a stab wound was performed on all dogs as previously described (5,6). Prior to surgery, the animals were anesthetized intravenously with pentobarbital sodium (25 mg/kg) and intubated. Following surgery, the dogs were kept at a housing farm where they were free to exercise in a large pen.
(§2) The dogs were randomly separated into 3 treatment groups. Group 1 (n=7 dogs) was made up of dogs that received placebo (encapsulated methylcellulose) treatment (OA dogs); Groups 2 and 3 (n=7 dogs per group) received encapsulated ML3000 twice daily for 8 weeks at total doses of 2.5 and 5 mg/kg, respectively, beginning the day following surgery. The medication was administered 7 days/week throughout the duration of the study. All dogs were killed 8 weeks after surgery.

LTB4 = LTB4 production in synovial explant culture of OA dogs (LPS, EIA); format: in vivo, dog; settings: both treated groups, explants with 1 μg/ml LPS; placebo 2.48±0.69 pg/mg tissue
Protocol: as §2
Representative specimens of synovial membrane from all dogs were aseptically dissected from underlying tissue. The specimens were rinsed several times in Dulbecco's Modified Eagle's Medium (DMEM; Gibco-BRL Life Technologies, Burlington, Ontario, Canada), and 150 mg of tissue incubated (duplicate) for 48 hours at 37° C. in a humidified atmosphere of 5% CO2/95% air in DMEM medium in the presence of 1 μg/ml lipopolysaccharide (LPS; Sigma-Aldrich Canada, Oakville, Ontario, Canada). The LTB4 was extracted from cultured synovium explants as follows: membranes were homogenized in EIA buffer (1 M phosphate, pH 7.4, containing 1% BSA, 4 M NaCl, 10 mM EDTA and 0.1% sodium azide) and centrifuged (30000 g, 20 minutes, 4° C.). Supernatants were collected and the levels of LTB4 determined using EIA (Cayman Chemical).

interleukin-1β (IL-1β) = assay: Immunohistochemistry, synovial membrane cell score for IL-1β in OA dogs; format: in vivo, dog; settings: 2.5 and 5 mg/kg/day
Protocol: as §2
Cartilage and synovial membrane specimens were processed for immunohistochemical analysis as previously described (7,14). Briefly, specimens were fixed in 4% neutral buffered formalin for 24 hours, then embedded in paraffin. Sections (5 μm) of paraffin-embedded specimens were placed on Superfrost Plus slides (Fisher Scientific, Nepean, Ontario, Canada), deparaffinized in toluene, dehydrated in a graded series of ethanol, and preincubated with chondroitinase ABC (0.25 units/ml) in phosphate buffered saline (PBS; Sigma-Aldrich Canada) for 60 minutes at 37° C. […]
Synovial membrane. For synovial membrane analysis, a cell score of the different specimens was determined for each section using our published method (8). […] The percentage of cells staining positive for the specific antigen was evaluated in each field as described above for cartilage. […]

[2] = system: carrageenan-induced paw edema; settings: rat; cited from earlier work
collagenase-1 (MMP-1) = assay: Immunohistochemistry, chondrocyte cell score for collagenase-1 in cartilage of OA dogs; format: in vivo, dog; settings: condyles and plateaus, both doses, slightly more pronounced at highest dosage
Protocol: as §2
Cartilage and synovial membrane specimens were processed for immunohistochemical analysis as previously described (7,14). Briefly, specimens were fixed in 4% neutral buffered formalin for 24 hours, then embedded in paraffin. […]
Cartilage. Quantification of the different antigens in cartilage was done using a published method (7,14). […] For each arthritic specimen, it was ensured prior to evaluation that an intact cartilage surface could be detected and used as a marker for validation of morphometric analysis. The total number of chondrocytes and the number of chondrocytes staining positive for the specific antigen were determined. The final results were expressed as the percentage of chondrocytes staining positive for the antigen (cell score) with the maximum score being 100%. […]

[3] = Plasma ML3000 level after immediate release dosage forms; format: in vivo; settings: immediate release dosage form, for 8 hours
rat adjuvant arthritis = settings: cited from earlier work
PGE2 = PGE2 measurement in synovial fluid of OA dogs (EIA); format: in vivo, dog; settings: 2.5 and 5 mg/kg/day; placebo 652.8±149.9 pg/ml
Protocol: as §2
Synovial fluid taken at the time of sacrifice was centrifuged (14000 g, 15 minutes, 4° C.), and supernatants used for PGE2 determination. The level of PGE2 was determined using a specific enzyme immunoassay (EIA) (Cayman Chemical, Ann Arbor, Mich.).

[4] = system: experimental osteoarthritis (OA) dog model; assay: Experimental OA dog model, histologic grading of cartilage and synovial membrane; format: in vivo
Protocol: as §1, §2
Histologic evaluation was performed on sagittal sections of cartilage from the lesioned areas of each femoral condyle and tibial plateau as described (7,8). Specimens were dissected, fixed in TissuFix #2 (Laboratoires Gilles Chaput, Montréal, Québec, Canada), and embedded in paraffin for histologic evaluation. Serial sections (5 μm) were stained with Safranin O. The severity of the OA lesions was graded on scale of 0-14, by 2 independent observers (DJ, JF), using the histologic/histochemical scale of Mankin et al (12). This scale evaluates the severity of OA lesions based on the loss of staining with Safranin O (scale 0-4), cellular changes (scale 0-3), invasion of the tidemark by blood vessels (scale 0-1), and structural changes (scale 0-6, where 0=normal cartilage structure and 6=erosion of the cartilage down to the subchondral bone). This scoring system was based on the most severe histologic changes within each cartilage section.
Representative specimens of synovial membrane from the gutters of the medial and lateral knee compartments were also dissected from underlying tissue. The specimens were fixed in TissuFix #2, embedded in paraffin, sectioned (5 μm), and stained with hematoxylin and eosin. Two synovial membrane specimens from each compartment were examined, serial selections were made throughout the specimens, and each one scored separately. The highest score from each specimen was recorded. The average was calculated and considered as a unit for the whole knee. The severity of synovitis was graded on a scale of 0-10 (13) by 2 independent observers (DVJ, JCF) adding the scores for 3 histologic criteria: synovial lining cell hyperplasia (scale 0-2), villous hyperplasia (scale 0-3), and degree of cellular infiltration by mononuclear and polymorphonuclear cells (scale 0-5).

[5] = system: experimental osteoarthritis (OA) dog model; assay: Experimental OA dog model (ACL section), macroscopic grading of the knee; format: in vivo; settings: for reduction of size of cartilage lesions on tibial plateaus vs placebo: P<0.01; for width of osteophytes: mean±SEM, placebo 4.50±0.66, not significant; for osteophytes present (share of condyles): placebo 93%
Protocol: as §1, §2
Immediately after killing, the right knee of each dog was dissected, placed on ice, and the synovial fluid aspirated. Each knee was examined by 2 independent, blinded observers (DVJ, JCF) for gross morphologic changes including the presence of osteophyte formation and cartilage lesions as previously described (5,6). The degree of osteophyte formation was graded by measuring the maximal width (mm) of the spur of each femoral condyle. The cartilage changes on the medial and lateral femoral condyles and tibial plateaus were graded separately under a dissecting microscope (Stereozoom; Bausch & Lomb, Rochester, N.Y.).
The area of the articular surface changes was measured and expressed in mm^2. The depth of erosion was graded on a scale of 0-4, as follows: 0=surface appears normal, 1=minimal fibrillation or a slight yellowish discoloration of the surface, 2=erosion extended into superficial or middle layers, 3=erosion extended into deep,layers, and 4=erosion extended to the subchondral bone.

[6] = system: experimental dog model of OA; settings: cited from earlier work
knee OA patients = settings: X-ray criteria, 5-year period; cited from earlier work

CC1(C)Cc2c(-c3ccccc3)c(-c3ccc(Cl)cc3)c(CC(=O)O)n2C1 [ML3000, [2,2-dimethyl-6-(4-chlorophenyl)-7-phenyl-2,3-dihydro-1H-pyrrolizine-5yl]-acetic acid]
body weight during the study period [1]: no change in the body weight
LTB4 levels in cultured synovium (LTB4): statistically significant reduction
number of synovial lining cells staining positive for IL-1β (interleukin-1β (IL-1β)): dose-dependent and significant decrease
anti-inflammatory action [2]: potent anti-inflammatory action
chondrocyte cell score for collagenase-1 (collagenase-1 (MMP-1)): significant decrease
plasma ML3000 concentration maintained ([3]; dose 2.5 mg/kg): above 100 ng/mL
plasma ML3000 concentration maintained ([3]; dose 5 mg/kg): > 200 ng/mL
anti-inflammatory action (rat adjuvant arthritis): potent anti-inflammatory action
level of PGE2 in synovial fluid (PGE2): markedly decreased
villous hyperplasia of synovial membrane ([4]; 5 mg/kg/day): significant reduction
histologic severity of cartilage lesions on condyles vs placebo, significance ([4]; 5 mg/kg/day, Mankin scale 0-14): statistical significance was obtained
histologic severity of cartilage lesions on tibial plateaus ([4]; 2.5 and 5 mg/kg/day (P<0.002 and P<0.02), Mankin scale): statistically significant decrease
histologic severity of cartilage lesions on condyles vs placebo ([4]; ML3000-treated dogs, Mankin scale 0-14): less severe
reduction of size of cartilage lesions on tibial plateaus vs placebo ([5]; 2.5 mg/kg/day, 8 weeks): 45%
reduction of size of cartilage lesions on femoral condyles vs placebo ([5]; 2.5 mg/kg/day, 8 weeks, P<0.05): 39%
width of osteophytes ([5]; 2.5 mg/kg/day, 8 weeks): 3.57±0.56 mm
osteophytes present (share of condyles) ([5]; 2.5 mg/kg/day, 8 weeks): 93%
reduction of size of cartilage lesions on tibial plateaus vs placebo ([5]; 5 mg/kg/day, 8 weeks): 54%
reduction of size of cartilage lesions on femoral condyles vs placebo ([5]; 5 mg/kg/day, 8 weeks, P<0.04): 61%
width of osteophytes ([5]; 5 mg/kg/day, 8 weeks): 3.86±0.66 mm
osteophytes present (share of condyles) ([5]; 5 mg/kg/day, 8 weeks): 86%
macroscopic appearance of synovial membrane vs placebo ([5]; ML3000-treated dogs, 8 weeks): thinner, contained fewer blood vessels, and the discoloration was less intense
grade of cartilage lesions on tibial plateaus ([5]; both doses (2.5 and 5 mg/kg/day), scale 0-4): significantly reduced
grade of cartilage lesions on femoral condyles ([5]; treated dogs (2.5 and 5 mg/kg/day), scale 0-4): did not reach statistical significance

O=C(O)Cc1ccccc1Nc1c(Cl)cccc1Cl [diclofenac]
effect on progression of experimental OA [6]: ineffective (10) or even demonstrated to accelerate cartilage damage

CC(=O)Oc1ccccc1C(=O)O [ASA, acetylsalicylic acid]
effect on progression of experimental OA [6]: ineffective (10) or even demonstrated to accelerate cartilage damage

CC(C(=O)O)c1ccc(C(=O)c2ccccc2)s1 (centres unmarked) [tiaprofenic acid]
effect on progression of cartilage damage (knee OA patients): could not retard the progression of cartilage damage

COc1ccc2c(c1)c(CC(=O)O)c(C)n2C(=O)c1ccc(Cl)cc1 [indomethacin]
effect on progression of cartilage damage (knee OA patients): even accelerated its progression

CC(C(=O)O)c1ccc2c(c1)[nH]c1ccc(Cl)cc12 (centres unmarked) [Carprofen]
effect on progression of experimental OA [6]: exhibit anti-OA effects
